According to patent US20120321729A1, “NUTRITIONAL FORMULA FOR MANAGING CHRONIC OBSTRUCTIVE PULMONARY DISEASE (COPD) AND LUNG HEALTH” (priority 2011, published 2012):
Where two headings read alike, the source gives them in different places.

Tests used:
[1] = tested on: lipopolysaccharide-induced injury (lungs); details: rats; cited from earlier work
[2] = tested on: primary rat tracheal epithelial cells; details: a chemical found in tobacco smoke, previously disclosed; cited from earlier work
[3] = tested on: Nrf2 (nuclear factor erythroid 2-related factor 2); assay: Alteration of regulatory elements of oxidative stress and inflammation (Nrf2); details: "We and others have observed"
[4] = tested on: heme oxygenase 1; details: Zhang H S, Wang S Q Biochem Pharmacol. 2007; cited from earlier work
[5] = tested on: Nrf2 (nuclear factor erythroid 2-related factor 2); details: "It has been shown" (related art); cited from earlier work
[6] = tested on: lipopolysaccharide-induced injury (lungs); details: mice; cited from earlier work
[7] = tested on: inducible nitric oxide synthase; details: Zhang H S, Wang S Q Biochem Pharmacol. 2007; cited from earlier work

Compound: Cc1coc2c1C(=O)C(=O)c1c-2ccc2c1CCCC2(C)C [Tanshinone IIA]
- protection of lungs from lipopolysaccharide-induced injury [1]: protects lungs
- protection of primary rat tracheal epithelial cells from benzopyrene [2]: protects
- effect on regulatory elements involved in oxidative stress and inflammation such as Nrf2 [3]: alters regulatory elements
- induction of heme oxygenase 1 [4]: inducer
- effect on regulatory elements involved in oxidative stress and inflammation such as Nrf2 [5]: alters regulatory elements
- protection of lungs from lipopolysaccharide-induced injury [6]: protects lungs
- suppression of the induction of inducible nitric oxide synthase [7]: suppressor of the induction
